# Reference: ChEMBL document CHEMBL1201862, “PubChem BioAssay data set” (2004)
# Structures can show the parent of a compound that is named as a salt. Active and inactive are the calls of the source.
# Experiments:
# Mu-type opioid receptor = Mu-type opioid receptor (Homo sapiens, UniProt P35372); type: functional, cell-based;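 also: U2OS cells with beta-arrestin recruitment to OPRM1 by beta-gal complementation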
# [1] = molecular target: 5-hydroxytryptamine receptor 2A (Mus musculus, UniProt P35363); type: functional, cell-based;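 also: CHO-K1 cells with tagged receptor and beta-arrestin; agonist potency measured as compound-induced activation of the receptor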
# [2] = Counterscreen for activators of the function of SWI/SNF related, matrix associated, actin dependent regulator of chromatin, subfamily a, member 2 (SMARCA2, BRM): Luminescence-based cell-based high throughput dose response assay to identify non-selective compounds using the VP16 reporter assay.; type: functional
# [3] = molecular target: SWI/SNF-related matrix-associated actin-dependent regulator of chromatin subfamily A member 2 (Homo sapiens, UniProt P51531); assay: Luminescence-based cell-based high throughput dose response assay to identify activators of the function of SWI/SNF related, matrix associated, actin dependent regulator of chromatin, subfamily a, member 2 (SMARCA2, BRM).; type: functional
# SWI/SNF-related matrix-associated actin-dependent regulator of chromatin subfamily A member 2, sequence (P51531 whole entry): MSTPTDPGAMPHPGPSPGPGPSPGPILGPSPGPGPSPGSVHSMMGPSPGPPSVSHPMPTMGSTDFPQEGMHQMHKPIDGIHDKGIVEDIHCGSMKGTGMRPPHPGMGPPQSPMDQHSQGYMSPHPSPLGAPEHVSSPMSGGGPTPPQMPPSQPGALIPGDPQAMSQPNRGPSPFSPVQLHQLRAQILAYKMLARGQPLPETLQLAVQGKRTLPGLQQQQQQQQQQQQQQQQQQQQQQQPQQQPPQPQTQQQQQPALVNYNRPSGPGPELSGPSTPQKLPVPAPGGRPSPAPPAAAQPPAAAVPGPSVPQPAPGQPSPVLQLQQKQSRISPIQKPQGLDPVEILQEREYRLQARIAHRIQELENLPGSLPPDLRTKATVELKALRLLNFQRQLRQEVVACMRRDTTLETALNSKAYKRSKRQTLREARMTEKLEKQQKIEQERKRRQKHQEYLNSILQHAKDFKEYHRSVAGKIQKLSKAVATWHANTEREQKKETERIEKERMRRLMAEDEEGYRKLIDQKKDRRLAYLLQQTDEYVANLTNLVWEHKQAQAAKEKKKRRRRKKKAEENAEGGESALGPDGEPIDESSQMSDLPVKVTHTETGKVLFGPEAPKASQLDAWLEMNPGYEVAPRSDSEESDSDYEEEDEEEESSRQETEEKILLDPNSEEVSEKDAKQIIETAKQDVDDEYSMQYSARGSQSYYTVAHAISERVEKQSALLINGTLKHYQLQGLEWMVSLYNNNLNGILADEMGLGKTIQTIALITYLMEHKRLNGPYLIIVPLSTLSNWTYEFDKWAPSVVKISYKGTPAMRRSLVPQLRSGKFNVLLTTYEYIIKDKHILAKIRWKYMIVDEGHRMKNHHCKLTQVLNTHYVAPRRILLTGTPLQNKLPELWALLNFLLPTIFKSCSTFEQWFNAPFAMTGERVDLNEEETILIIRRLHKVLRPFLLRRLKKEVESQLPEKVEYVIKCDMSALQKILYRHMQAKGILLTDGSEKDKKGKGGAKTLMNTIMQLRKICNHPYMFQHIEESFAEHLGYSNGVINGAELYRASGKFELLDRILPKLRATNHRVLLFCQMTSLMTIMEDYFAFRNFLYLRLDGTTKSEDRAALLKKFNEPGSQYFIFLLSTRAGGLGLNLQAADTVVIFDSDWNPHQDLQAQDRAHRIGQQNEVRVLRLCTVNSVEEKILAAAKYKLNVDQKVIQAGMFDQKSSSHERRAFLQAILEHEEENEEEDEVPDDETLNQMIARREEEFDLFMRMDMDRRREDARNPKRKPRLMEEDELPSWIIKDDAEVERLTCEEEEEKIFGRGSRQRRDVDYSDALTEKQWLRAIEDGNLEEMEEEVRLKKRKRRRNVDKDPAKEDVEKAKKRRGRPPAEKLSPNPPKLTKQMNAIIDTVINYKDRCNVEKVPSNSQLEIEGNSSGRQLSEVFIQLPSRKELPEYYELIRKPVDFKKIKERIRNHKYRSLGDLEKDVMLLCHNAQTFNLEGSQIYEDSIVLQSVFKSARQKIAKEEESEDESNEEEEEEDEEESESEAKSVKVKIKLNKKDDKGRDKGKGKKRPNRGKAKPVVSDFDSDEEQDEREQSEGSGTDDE
# Galanin receptor type 3 = Galanin receptor type 3 (Homo sapiens, UniProt O60755); assay: Fluorescence-based cell-based primary high throughput dose response assay to identify antagonists of the Galanin Receptor 3 (GalR3).; type: functional
# [4] = HEK-293T viability loss after treatment – luminescence, T-cell screen hits, cytotoxicity control for TCR NF-kB inhibitor project, dose response (AID 489026); type: functional, cell-based;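 also: cells exposed to compound about 14 hours before the viability readout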
# cells [5] = type: functional, cell-based; settings: HEK-CNG
# Cytochrome P450 3A4 [6] = molecular target: T1, Cytochrome P450 3A4 (Homo sapiens, UniProt P08684)
# T1 sequence (P08684 whole entry): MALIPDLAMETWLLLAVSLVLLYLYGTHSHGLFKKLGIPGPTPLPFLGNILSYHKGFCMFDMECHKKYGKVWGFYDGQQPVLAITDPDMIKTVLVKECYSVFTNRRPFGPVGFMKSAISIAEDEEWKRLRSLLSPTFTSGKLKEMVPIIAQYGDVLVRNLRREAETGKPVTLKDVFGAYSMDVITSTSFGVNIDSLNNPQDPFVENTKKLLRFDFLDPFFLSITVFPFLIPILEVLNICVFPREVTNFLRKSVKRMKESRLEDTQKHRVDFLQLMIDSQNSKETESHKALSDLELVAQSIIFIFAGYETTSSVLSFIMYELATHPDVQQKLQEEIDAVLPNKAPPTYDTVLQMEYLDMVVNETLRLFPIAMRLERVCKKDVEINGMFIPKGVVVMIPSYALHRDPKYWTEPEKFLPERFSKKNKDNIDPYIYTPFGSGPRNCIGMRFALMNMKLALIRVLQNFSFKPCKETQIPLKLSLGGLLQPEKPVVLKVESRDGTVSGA
# [7] = molecular target: T2, Methionyl-tRNA synthetase, putative (Trypanosoma brucei brucei, UniProt Q38C91); type: functional, Trypanosoma brucei brucei strain 927/4 GUTat10.1
# T2 sequence (Q38C91 whole entry): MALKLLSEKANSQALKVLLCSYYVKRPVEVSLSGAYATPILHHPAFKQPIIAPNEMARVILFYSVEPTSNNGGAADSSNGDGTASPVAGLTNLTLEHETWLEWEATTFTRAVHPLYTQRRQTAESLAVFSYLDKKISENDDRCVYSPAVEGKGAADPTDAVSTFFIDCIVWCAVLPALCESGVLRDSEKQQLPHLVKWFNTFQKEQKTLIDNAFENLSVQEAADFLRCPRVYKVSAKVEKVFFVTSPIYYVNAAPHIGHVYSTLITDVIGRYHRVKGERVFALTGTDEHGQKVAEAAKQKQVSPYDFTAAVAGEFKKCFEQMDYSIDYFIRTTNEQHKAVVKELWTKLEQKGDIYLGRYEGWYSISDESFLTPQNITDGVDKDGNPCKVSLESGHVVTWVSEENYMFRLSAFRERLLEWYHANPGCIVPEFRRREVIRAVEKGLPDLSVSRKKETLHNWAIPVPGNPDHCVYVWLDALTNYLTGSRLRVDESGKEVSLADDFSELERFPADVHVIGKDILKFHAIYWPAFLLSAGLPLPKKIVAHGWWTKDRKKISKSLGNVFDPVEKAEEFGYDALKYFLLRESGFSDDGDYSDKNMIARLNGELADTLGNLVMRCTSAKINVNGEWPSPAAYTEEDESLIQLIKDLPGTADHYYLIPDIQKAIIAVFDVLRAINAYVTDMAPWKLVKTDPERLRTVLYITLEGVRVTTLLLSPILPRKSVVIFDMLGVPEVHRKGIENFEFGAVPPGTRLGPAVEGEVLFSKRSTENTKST
# [8] = loss of viability in HepG2 cells – cell-based, CellTiter-Glo, cherry-picked, cytotoxicity control for Shn3 inhibitor project, dose response (AID 624134); type: functional
# [9] = non-specific 3'UTR reporter inhibition in Clone20-Shn3RL – cell-based, Renilla luciferase, cherry-picked, counter-screen for Shn3 inhibitor project, dose response (AID 624133); type: functional
# Cytochrome P450 2C9 = Cytochrome P450 2C9 (Homo sapiens, UniProt P11712)
# Cytochrome P450 2C9, sequence (P11712 whole entry): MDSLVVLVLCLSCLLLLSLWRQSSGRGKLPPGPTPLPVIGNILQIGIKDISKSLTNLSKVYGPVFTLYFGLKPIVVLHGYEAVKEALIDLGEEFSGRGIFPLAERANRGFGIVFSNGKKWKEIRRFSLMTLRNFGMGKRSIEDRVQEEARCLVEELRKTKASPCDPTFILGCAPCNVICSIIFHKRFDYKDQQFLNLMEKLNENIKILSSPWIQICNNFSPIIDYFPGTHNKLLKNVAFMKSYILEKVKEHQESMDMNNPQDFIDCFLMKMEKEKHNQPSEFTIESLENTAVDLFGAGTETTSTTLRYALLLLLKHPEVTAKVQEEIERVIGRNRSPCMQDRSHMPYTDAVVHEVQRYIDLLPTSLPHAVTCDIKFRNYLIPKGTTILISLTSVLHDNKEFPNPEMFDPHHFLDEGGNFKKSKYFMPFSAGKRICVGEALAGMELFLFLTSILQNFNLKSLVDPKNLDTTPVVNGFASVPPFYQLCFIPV
# [10] = molecular target: T2, Methionyl-tRNA synthetase, putative; type: functional, Trypanosoma brucei brucei strain 927/4 GUTat10.1; remark: listed apart in the source
# [11] = Counterscreen for inhibitors of Trypanosoma brucei methionyl tRNA synthetase (MetRS): Luminescence-based cell-based high throughput dose response assay to identify compounds that are cytotoxic to Jurkat human T lymphocyte cells.; type: functional
# [12] = reduction of Shn3 3'UTR-driven luciferase in osteoblasts – cell-based, Clone20 osteoblasts, firefly luciferase, cherry-picked, dose response (AID 624132); type: functional;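 also: firefly luciferase luminescence from reporter carrying the Shn3 3'UTR in osteoblasts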
# Cytochrome P450 2D6 = Cytochrome P450 2D6 (Homo sapiens, UniProt P10635);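 also: CYP2D6 member of a cytochrome P450 panel assay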
# Cytochrome P450 2D6, sequence (P10635 whole entry): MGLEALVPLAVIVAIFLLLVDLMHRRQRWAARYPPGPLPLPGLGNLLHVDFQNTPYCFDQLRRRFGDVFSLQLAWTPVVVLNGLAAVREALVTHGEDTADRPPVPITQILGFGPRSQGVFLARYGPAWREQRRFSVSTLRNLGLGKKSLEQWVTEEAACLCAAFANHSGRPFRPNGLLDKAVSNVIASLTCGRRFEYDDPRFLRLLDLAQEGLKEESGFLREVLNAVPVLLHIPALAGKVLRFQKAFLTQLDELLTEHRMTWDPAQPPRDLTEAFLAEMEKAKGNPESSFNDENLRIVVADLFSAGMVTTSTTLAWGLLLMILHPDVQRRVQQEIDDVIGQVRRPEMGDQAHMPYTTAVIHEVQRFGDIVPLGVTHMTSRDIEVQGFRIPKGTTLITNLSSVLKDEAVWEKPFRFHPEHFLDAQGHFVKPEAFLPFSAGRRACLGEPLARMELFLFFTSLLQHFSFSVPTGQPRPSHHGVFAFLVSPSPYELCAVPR
# cells [13] = type: functional, cell-based
# [14] = molecular target: T3, Nuclear receptor subfamily 0 group B member 1 (Homo sapiens, UniProt P51843); type: functional, cell-based;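 also: HEK293T cells transfected with SF-1 and DAX-1 plus StAR promoter luciferase reporter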
# T3 sequence (P51843 whole entry): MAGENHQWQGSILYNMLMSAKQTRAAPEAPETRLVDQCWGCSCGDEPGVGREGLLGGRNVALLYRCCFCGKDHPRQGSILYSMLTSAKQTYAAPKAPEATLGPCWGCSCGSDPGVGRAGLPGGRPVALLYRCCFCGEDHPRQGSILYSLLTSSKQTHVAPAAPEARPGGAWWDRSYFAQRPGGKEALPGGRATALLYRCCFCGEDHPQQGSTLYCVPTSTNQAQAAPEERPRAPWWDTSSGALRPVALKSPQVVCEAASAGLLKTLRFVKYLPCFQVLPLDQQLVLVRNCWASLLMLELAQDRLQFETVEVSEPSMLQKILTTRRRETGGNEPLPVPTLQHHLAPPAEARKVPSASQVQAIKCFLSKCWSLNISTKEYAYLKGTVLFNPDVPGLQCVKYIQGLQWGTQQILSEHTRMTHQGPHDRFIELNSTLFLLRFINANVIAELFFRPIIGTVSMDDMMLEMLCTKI
# [15] = molecular target: T4, Sentrin-specific protease 6 (Homo sapiens, UniProt Q9GZR1); type: functional;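 also: Luminescence-based dose-response confirmatory assay of SENP6 inhibition, following up an ultra-high-throughput screen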
# T4 sequence (Q9GZR1 whole entry): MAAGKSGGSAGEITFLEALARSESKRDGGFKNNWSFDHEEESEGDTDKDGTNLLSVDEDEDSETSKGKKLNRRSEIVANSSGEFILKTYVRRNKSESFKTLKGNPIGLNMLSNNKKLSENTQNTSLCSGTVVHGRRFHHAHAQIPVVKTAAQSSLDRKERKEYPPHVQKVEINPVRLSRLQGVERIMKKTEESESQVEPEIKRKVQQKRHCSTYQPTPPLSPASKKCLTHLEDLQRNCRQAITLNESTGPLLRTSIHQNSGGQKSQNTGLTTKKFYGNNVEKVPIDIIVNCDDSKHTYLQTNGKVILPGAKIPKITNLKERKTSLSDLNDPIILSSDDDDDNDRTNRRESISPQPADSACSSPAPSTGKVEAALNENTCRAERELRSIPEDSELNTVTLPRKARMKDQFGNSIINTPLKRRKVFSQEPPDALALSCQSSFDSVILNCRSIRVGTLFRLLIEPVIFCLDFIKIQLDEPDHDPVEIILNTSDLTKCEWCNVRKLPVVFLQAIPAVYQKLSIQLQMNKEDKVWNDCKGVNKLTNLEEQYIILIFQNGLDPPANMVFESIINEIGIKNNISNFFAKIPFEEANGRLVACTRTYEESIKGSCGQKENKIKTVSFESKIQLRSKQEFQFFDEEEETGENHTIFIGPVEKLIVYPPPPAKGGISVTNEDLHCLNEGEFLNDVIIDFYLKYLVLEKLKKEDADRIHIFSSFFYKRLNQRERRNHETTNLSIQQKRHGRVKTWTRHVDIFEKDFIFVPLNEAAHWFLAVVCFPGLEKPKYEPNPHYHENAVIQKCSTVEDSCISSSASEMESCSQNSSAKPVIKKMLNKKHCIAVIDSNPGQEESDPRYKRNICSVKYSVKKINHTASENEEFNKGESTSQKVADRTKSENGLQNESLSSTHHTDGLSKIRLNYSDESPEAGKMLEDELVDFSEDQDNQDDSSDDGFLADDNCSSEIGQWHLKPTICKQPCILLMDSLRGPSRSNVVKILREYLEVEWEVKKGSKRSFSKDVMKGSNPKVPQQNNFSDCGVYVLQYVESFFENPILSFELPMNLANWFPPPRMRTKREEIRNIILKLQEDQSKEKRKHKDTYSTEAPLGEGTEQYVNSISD
# [16] = molecular target: T5, Sentrin-specific protease 7 (Homo sapiens, UniProt Q9BQF6); type: functional;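 also: Luminescence-based dose-response confirmation of ultra-high-throughput screening hits, measuring inhibition of SENP7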
# T5 sequence (Q9BQF6 whole entry): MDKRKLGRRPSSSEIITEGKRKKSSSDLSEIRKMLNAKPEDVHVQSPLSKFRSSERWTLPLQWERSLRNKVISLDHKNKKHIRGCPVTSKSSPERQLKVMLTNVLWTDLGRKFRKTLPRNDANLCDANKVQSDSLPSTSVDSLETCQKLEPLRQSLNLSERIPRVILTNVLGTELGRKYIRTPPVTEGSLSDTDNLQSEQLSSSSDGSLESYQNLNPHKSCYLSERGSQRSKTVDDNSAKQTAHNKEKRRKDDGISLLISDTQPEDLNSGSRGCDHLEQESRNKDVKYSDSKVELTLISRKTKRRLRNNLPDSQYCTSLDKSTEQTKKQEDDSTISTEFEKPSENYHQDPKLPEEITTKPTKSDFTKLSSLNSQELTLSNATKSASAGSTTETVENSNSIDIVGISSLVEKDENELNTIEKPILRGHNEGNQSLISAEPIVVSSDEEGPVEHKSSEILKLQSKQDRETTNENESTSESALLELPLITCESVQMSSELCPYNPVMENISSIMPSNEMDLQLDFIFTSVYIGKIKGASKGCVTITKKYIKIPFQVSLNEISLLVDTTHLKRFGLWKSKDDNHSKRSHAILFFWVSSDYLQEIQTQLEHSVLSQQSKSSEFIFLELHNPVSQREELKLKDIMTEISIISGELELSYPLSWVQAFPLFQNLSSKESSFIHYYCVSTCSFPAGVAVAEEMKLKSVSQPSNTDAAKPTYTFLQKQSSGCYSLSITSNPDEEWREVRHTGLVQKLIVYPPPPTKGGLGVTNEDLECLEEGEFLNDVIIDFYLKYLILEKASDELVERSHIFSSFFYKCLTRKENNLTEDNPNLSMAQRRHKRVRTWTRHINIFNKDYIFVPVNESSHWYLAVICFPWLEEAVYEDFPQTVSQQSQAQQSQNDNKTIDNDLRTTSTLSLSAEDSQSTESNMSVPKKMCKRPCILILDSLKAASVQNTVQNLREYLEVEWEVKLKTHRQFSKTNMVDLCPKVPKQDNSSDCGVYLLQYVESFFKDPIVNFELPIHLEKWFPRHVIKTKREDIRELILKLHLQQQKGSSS
# Caspase-3 [17] = molecular target: T6, Caspase-3 (Homo sapiens, UniProt P42574); type: functional
# T6 sequence (P42574 whole entry): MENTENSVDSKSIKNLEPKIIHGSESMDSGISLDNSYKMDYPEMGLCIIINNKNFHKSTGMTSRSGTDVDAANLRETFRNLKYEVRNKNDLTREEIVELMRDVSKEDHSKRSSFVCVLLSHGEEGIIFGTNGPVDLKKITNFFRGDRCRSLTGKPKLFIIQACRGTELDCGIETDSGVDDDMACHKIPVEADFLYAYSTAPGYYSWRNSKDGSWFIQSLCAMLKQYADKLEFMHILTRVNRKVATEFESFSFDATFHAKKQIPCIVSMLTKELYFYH
# [18] = molecular target: T7, Sentrin-specific protease 8 (Homo sapiens, UniProt Q96LD8); type: functional
# T7 sequence (Q96LD8 whole entry): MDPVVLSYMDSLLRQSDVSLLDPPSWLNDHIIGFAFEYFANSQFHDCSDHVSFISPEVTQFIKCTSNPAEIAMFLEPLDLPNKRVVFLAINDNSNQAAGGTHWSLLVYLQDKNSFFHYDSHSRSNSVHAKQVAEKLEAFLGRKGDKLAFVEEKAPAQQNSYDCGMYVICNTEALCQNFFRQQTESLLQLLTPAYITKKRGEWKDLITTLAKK
# Caspase-3 [19] = molecular target: T6, Caspase-3; assay: Dose-response confirmation of uHTS inhibitor hits of Sentrin-Specific Protease 8 in a Caspase-3 Fluorescence assay.; type: functional
# [20] = molecular target: Mitochondrial peptide methionine sulfoxide reductase (Bos taurus, UniProt P54149); assay: Absorbance-based biochemical high throughput dose response assay for activators of Methionine sulfoxide reductase A (MsrA).; type: functional
# Mitochondrial peptide methionine sulfoxide reductase, sequence (P54149 whole entry): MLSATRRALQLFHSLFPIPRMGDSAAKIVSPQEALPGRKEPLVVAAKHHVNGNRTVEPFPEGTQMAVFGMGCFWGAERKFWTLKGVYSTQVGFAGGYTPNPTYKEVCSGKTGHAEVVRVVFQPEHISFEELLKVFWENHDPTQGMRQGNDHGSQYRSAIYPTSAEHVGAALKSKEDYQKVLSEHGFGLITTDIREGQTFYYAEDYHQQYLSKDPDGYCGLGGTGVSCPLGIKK
# [21] = molecular target: T7, Sentrin-specific protease 8; type: functional; remark: listed apart in the source
# [22] = molecular target: T7, Sentrin-specific protease 8; type: functional; remark: listed apart in the source
# Protein S100-A4 = Protein S100-A4 (Homo sapiens, UniProt P26447); assay: human S100A4 peptide interaction inhibition curves – biochemical, fluorescence polarization, cherry-picked hits, dose response (AID 687001); type: functional
# Protein S100-A4, sequence (P26447 whole entry): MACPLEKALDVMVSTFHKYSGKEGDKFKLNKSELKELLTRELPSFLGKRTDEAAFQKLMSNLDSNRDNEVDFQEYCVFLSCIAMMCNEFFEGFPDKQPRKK
# Vero = assay: viability loss in Vero cells – cell-based, plate reader, cherry-pick samples, cytotoxicity control, dose response (AID 687020); type: functional; settings: Chlorocebus sabaeus
# Cytochrome P450 3A4 [23] = molecular target: T1, Cytochrome P450 3A4; settings: Potency
# [24] = molecular target: T8, Trace amine-associated receptor 1 (Homo sapiens, UniProt Q96RJ0); assay: Fluorescence-based cell-based high throughput dose response assay to identify agonists of the human trace amine associated receptor 1 (TAAR1).; type: functional
# T8 sequence (Q96RJ0 whole entry): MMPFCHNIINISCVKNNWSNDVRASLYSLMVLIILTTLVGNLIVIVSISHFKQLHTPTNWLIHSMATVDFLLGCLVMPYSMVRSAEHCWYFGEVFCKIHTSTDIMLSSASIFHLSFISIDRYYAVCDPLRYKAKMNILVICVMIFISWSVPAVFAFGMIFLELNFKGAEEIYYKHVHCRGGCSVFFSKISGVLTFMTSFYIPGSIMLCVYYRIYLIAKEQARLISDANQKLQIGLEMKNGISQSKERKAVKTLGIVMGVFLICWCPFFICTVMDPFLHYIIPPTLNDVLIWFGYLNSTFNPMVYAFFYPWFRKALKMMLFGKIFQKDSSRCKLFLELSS
# cells [25] = type: functional, cell-based; remark: listed apart in the source
# cells [26] = type: functional, cell-based; remark: listed apart in the source
# [27] = molecular target: T8, Trace amine-associated receptor 1; assay: Counterscreen for agonists of the human trace amine associated receptor 1 (hTAAR1): Fluorescence-based cell-based high throughput dose response assay to identify hTAAR1 agonist that also desensitize TAAR1 receptor response.; type: functional
# Mu-type opioid receptor, sequence (P35372 whole entry): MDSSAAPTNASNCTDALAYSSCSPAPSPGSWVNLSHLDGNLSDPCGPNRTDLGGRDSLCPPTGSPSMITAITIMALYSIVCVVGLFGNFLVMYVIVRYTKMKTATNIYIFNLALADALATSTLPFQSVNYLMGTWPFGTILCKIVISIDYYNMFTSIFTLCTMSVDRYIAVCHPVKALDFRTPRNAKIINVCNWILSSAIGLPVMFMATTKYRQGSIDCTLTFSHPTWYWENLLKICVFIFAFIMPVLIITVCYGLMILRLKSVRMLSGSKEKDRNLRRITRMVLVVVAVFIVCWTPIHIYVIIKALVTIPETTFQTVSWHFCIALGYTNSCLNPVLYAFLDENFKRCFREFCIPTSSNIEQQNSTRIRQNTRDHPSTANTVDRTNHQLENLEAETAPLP
structure (smiles),measurement,setting,value
Cc1ccc(C)c(CN2CCN(c3ncccn3)CC2)c1,EC50,Mu-type opioid receptor,92.4 µM (inactive)
same,EC50,[1],76 µM (inactive)
CCCCn1c(=N)n(CC(=O)c2ccc(OC)cc2)c2ccccc21,EC50,[2],> 91.1 µM (inactive)
same,EC50,[3],> 91.1 µM (inactive)
CCCCc1ccc(NC(=O)c2ccc(N(C)S(C)(=O)=O)cc2)cc1,IC50,Galanin receptor type 3,0.996 µM (active)
same,IC50,[4],> 80 µM (inactive)
same,EC50,cells [5],> 29.9 µM (inactive)
Nc1nc(N)c(-c2cccc(C(F)(F)F)c2)c(Cc2cccc(C(F)(F)F)c2)n1,AC50,Cytochrome P450 3A4 [6],3.16 µM (inconclusive)
same,IC50,[7],19.5 µM (inactive)
same,AC50,[8],5.88 µM (active)
same,AC50,[9],3.87 µM (active)
same,AC50,Cytochrome P450 2C9,5.01 µM (inconclusive)
same,IC50,[10],12.7 µM (inactive)
same,IC50,[11],20.7 µM (inactive)
same,AC50,[12],3.6 µM (active)
same,AC50,Cytochrome P450 2D6,3.98 µM (inconclusive)
Cn1nnnc1SCC(=O)Nc1ccc2c(c1)OCCO2,IC50,cells [13],> 67.5 µM (inactive)
same,IC50,[14],> 67.5 µM (inactive)
O=C(COC(=O)c1ccc([N+](=O)[O-])s1)NNC(=O)c1ccccc1,IC50,[15],4.34 µM (active)
same,IC50,[16],6.91 µM (active)
same,IC50,Caspase-3 [17],6.74 µM (active)
same,IC50,[18],4.94 µM (active)
same,IC50,Caspase-3 [19],84.6 µM (inactive)
same,EC50,[20],36.1 µM (inactive)
same,IC50,[21],4.2 µM (active)
same,IC50,[22],2.3 µM (active)
O=C(CCc1ccccc1Cl)NC1CCCN(c2ccc(C(F)(F)F)cn2)C1 (stereo not drawn),AC50,Protein S100-A4,9.67 µM (active)
CC1(C(=O)NCc2cccc(C(F)(F)F)c2)CCN1Cc1cc2ccccc2o1 (stereo not drawn),AC50,Vero,20.4 µM (active)
NCC(=O)c1ccccc1 [PHENACYLAMINE HYDROCHLORIDE],AC50,Cytochrome P450 3A4 [23],6.31 µM (inconclusive)
same,EC50,[24],1.08 µM (active)
same,IC50,cells [25],> 29.9 µM (inactive)
same,EC50,cells [26],> 29.9 µM (inactive)
same,IC50,[27],7.42 µM (active)
